The values below come from patent US20150204851A1, “METHODS FOR IDENTIFYING DIABETES DRUGS” (Metanomics Health GmbH, priority 2012, published 2015).

Where a name gives a salt, the structure may show the parent alone.

Assay [1] deals with glyoxylate. As to conditions: cultured human cells; Berman 2005; cited from earlier work.
The conditions of assay [2]: Mehta 2009; cited from earlier work.
Assay [3] deals with glyoxylate. Nature of the assay: Glyoxylate level in C. elegans after treatment, GC-MS. It is filed as in vivo, Caenorhabditis elegans. The conditions noted are these: for Effect on native/endogenous glyoxylate levels in C. elegans: single treatment: 50 mM metformin or 20 mM glyoxylate; for Ratio of glyoxylate concentrations in C. elegans, treatment/control: wild type on growth medium, 20 mM glyoxylate and/or 50 mM metformin, normalized to median of control.
Description: Nematodes were harvested and extensively washed with buffer and the resulting pellet was disrupted using glass beats in combination with mechanical force. Samples were extracted with methyl-tert-butylether, methanol and extraction buffer and sonicated for 15 minutes. 50% of a mixture of water/methanol (3:1) was added, vigorously mixed and centrifuged. The polar phase was evaporated to dryness. After addition of water and a mixture of ethanol and dichlormethan, the sample was fractioned into an aqueous, polar phase and an organic, lipophilic phase. 13C-glyoxylate was added as internal standard and the extracts were derivatized in the following way: The methoximation of the carbonyl groups was carried out by reaction with methoxyamine hydrochloride (20 mg/mL in pyridine, 50 μL for 1.5 hours at 60° C.) in a tightly sealed vessel. Finally, the derivatization with 50 μL of N-methyl-N-(trimethylsilyl)-2,2,2-trifluoroacetamide (MSTFA) was carried out for 30 minutes at 60° C., again in the tightly sealed vessel. The final volume before injection into the GC was 100 μL. The GC-MS systems consist of an Agilent 6890 GC coupled to an Agilent 5973 MSD. Autosamplers were CompiPal or GCPaI from CTC.
For the analysis a usual commercial capillary separation column (30 m×0.25 mm×0.5 μm) with an arylene/poly-methyl-siloxane stationary phases was used (for example: DB-XLB, Agilent Technologies). 0.5 μL of the final volume was injected splitless and the oven temperature program was started at 70° C. and ended at 320° C. with different heating rates starting with low rates in order to achieve a sufficient chromatographic separation and number of scans for glyoxylate analysis and changing to a high heating rate after glyoxylate elution. Furthermore usual GC-MS standard conditions, for example constant flow with nominal 1 to 1.7 mL/min. and helium as the mobile phase gas and standard tune conditions were applied. Ionization was done by electron impact with 70 eV, scanning 2 characteristic mass fragments of the glyoxylate derivate and its internal standard, respectively within an appropriate time window. Scan rate was 25 scans/sec. Glyoxylate values were normalized to Total Ion Count of each sample to adjust individual deviation of sample volume. Furthermore, the data were normalized to the median of the control samples leading to ratios to control.
We tested the hypothesis that metformin suppresses glyoxylate concentration in in vivo experiments with the model worm Caenorhabditis elegans, by means of its treatment with glyoxylate and metformin separately and in combination of glyoxylate plus metformin.
The experiment included four treatment groups:
1) C. elegans, wild type (wt)—on growth medium (no treatment, control).
2) C. elegans, wt—on growth medium plus 50 mM metformin (methodology for Metformin application and doses as described in Onken & Driscoll (Onken B, Driscoll M (2010) Metformin induces a dietary restriction-like state and the oxidative stress response to extend C. elegans healthspan via AMPK, LKB1, and SKN-1. PLoS ONE 5(1): e8758.).
3) C. elegans, wt—on growth medium plus 20 mM glyoxylate.
4) C. elegans, wt—on growth medium plus 20 mM glyoxylate and 50 mM metformin.
From the GC-MS metabolite profiles, total ion count (TIC) as a measure of the absolute intensity value was calculated for each batch. Measured glyoxylate levels were then volume-normalized, using TICs.

The subject of assay [4] is glyoxylate. In words: Plasma glyoxylate in rats dosed 28 days by gavage, GC-MS metabolite profiling. It is filed as in vivo, rat. As to conditions: for Ratio treatment/control, plasma glyoxylate: gavage once daily. The procedure: Two groups of each 5 male and female rats was dosed once daily with the indicated compounds with a different dose per group (see below) over 28 days.
Each dose group in the studies consisted of five rats per sex. Additional groups of each 15 male and 15 female animals served as controls. Before starting the treatment period, animals, which were 62-64 days old when supplied, were acclimatized to the housing and environmental conditions for 7 days. All animals of the animal population were kept under the same constant temerature (20-24±3° C.) and the same constant humidity (30-70%). The animals of the animal population were fed ad libitum. The food to be used was essentially free of chemical or microbial contaminants. Drinking water was also offered ad libitum. Accordingly, the water was free of chemical and microbial contaminants as laid down in the European Drinking Water Directive 98/83/EG. The illumination period was 12 hours light followed by 12 hours darkness (12 hours light, from 6:00 to 18:00, and 12 hours darkness, from 18:00 to 6:00). The studies were performed in an AAALAC-approved laboratory in accordance with the German Animal Welfare Act and the European Council Directive 86/609/EE. The test system was arranged according to the OECD 407 guideline for the testing of chemicals for repeated dose 28-day oral toxicity study in rodents. The test substance was dosed and administered as follows:
Metformin hydrochloride was administered by gavage (high dose group at 1 g/kg body weight, low dose group at 0.2 g/kg body weight), in drinking water containing 0.5% Carboxymethyl cellulose (Tylose CB30000) (administration volume: 10 ml/kg body weight).
In the morning of day 7, 14, and 28, blood was taken from the retroorbital venous plexus from fasted anaesthetized animals. From each animal, 1 ml of blood was collected with EDTA as anticoagulant. The samples were centrifuged for generation of plasma. All plasma samples were covered with a N2 atmosphere and then stored at −80° C. until analysis.
For mass spectrometry-based metabolite profiling analyses plasma samples were extracted and a polar and a non-polar (lipid) fraction was obtained. For GC-MS analysis, the non-polar fraction was treated with methanol under acidic conditions to yield the fatty acid methyl esters. Both fractions were further derivatized with O-methyl-hydroxyamine hydrochloride and pyridine to convert Oxo-groups to O-methyloximes and subsequently with a silylating agent before analysis.
Following comprehensive analytical validation steps, the data for each analyte were normalized against data from pool samples. These samples were run in parallel through the whole process to account for process variability. The significance of treatment group values specific for sex, treatment duration and metabolite was determined by comparing means of the treated groups to the means of the respective untreated control groups using WELCH-test and quantified with treatment ratios versus control and p-values.

In the next assay the test system is C. elegans. As to conditions: in vivo; cited from earlier work.

As to `N=C(N)NN` [Aminoguanidine, aminoguanidine], the “Scavenging of glyoxylate, diverting it from oxalate synthesis” value in the assay with glyoxylate [1] is given as “demonstrated to scavenge glyoxylate”. In addition, the “Order of effectiveness for glyoxal trapping, amine-containing drugs” value in assay [2] was “aminoguanidine>>pyridoxamine>metformin”.
Take `O=CC(=O)O` [Glyoxylate, glyoxylate]: in the assay on glyoxylate [3], the “Effect on native/endogenous glyoxylate levels in C. elegans” value is given as “significant increase of endogenous glyoxylate” and the “Ratio of glyoxylate concentrations in C. elegans, treatment/control” value stood at 1.81.
For the compound `CN(C)C(=N)N=C(N)N` [Metformin hydrochloride], the “Ratio treatment/control, plasma glyoxylate” value came out at 0.82 in the assay on glyoxylate [4] (High Dose 1 g/kg body weight, female rats, day 7 (f7)); 0.58 in the assay with glyoxylate [4] (High Dose 1 g/kg body weight, female rats, day 14 (f14)); 0.52 in the assay with glyoxylate [4] (High Dose 1 g/kg body weight, female rats, day 28 (f28)); 0.22 with glyoxylate [4] (High Dose 1 g/kg body weight, male rats, day 7 (m7)); 0.29 with glyoxylate [4] (High Dose 1 g/kg body weight, male rats, day 14 (m14)); 0.58 with glyoxylate [4] (High Dose 1 g/kg body weight, male rats, day 28 (m28)). The “Ratio treatment/control, plasma glyoxylate” value with glyoxylate [4] (Low Dose 0.2 g/kg body weight, female rats, day 7 (f7)) worked out at 1.01; in the assay on glyoxylate [4] (Low Dose 0.2 g/kg body weight, female rats, day 14 (f14)) it was 0.72; in the assay on glyoxylate [4] (Low Dose 0.2 g/kg body weight, female rats, day 28 (f28)), 0.64; in the assay on glyoxylate [4] (Low Dose 0.2 g/kg body weight, male rats, day 7 (m7)) it was 0.59; with glyoxylate [4] (Low Dose 0.2 g/kg body weight, male rats, day 14 (m14)), 0.65; in the assay on glyoxylate [4] (Low Dose 0.2 g/kg body weight, male rats, day 28 (m28)), 0.44.
As to `CN(C)C(=N)N=C(N)N` [Metformin, metformin], the “Effect on glyoxylate concentrations in a rat model system” value with glyoxylate [4] (summary of Table 2) is given as “strongly reducing glyoxylate concentrations”. In the assay on glyoxylate [3] (50 mM metformin simultaneously to treatment with 20 mM glyoxylate), the “Effect on glyoxylate-induced increase of endogenous glyoxylate in C. elegans” value was “restored the native glyoxylate level”. Moreover, in the assay on glyoxylate [3], the “Effect on native/endogenous glyoxylate levels in C. elegans” value is on record as “significantly decreased native glyoxylate levels” and the “Ratio of glyoxylate concentrations in C. elegans, treatment/control” value is 0.88. Besides, the “Order of effectiveness for glyoxal trapping, amine-containing drugs” value in assay [2] was “aminoguanidine>>pyridoxamine>metformin”. Further, the “Effect on lifespan in C. elegans” value in the assay with C. elegans is “promote lifespan in C. elegans”.
Consider `CC(=O)N[C@@H](CS)C(=O)O` [N-acetyl-cysteine], for which, in assay [2], the “Order of effectiveness for glyoxal trapping, thiol-containing drugs” value (“Order … thiol-containing drugs” for short) is listed as “penicillamine>cysteine>N-acetyl-cysteine”.
Consider `N[C@@H](CS)C(=O)O` [cysteine], for which the “Order … thiol-containing drugs” value in assay [2] is on record as “penicillamine>cysteine>N-acetyl-cysteine”.
Consider `CC(C)(S)[C@@H](N)C(=O)O` [penicillamine], for which the “Order … thiol-containing drugs” value in assay [2] is “penicillamine>cysteine>N-acetyl-cysteine”.
